Source: patent US20090069336A1, “PYRIMIDOTHIOPHENE COMPOUNDS” (VERNALIS (CAMBRIDGE) LIMITED., priority 2004, published 2009)
Like-named read-outs stand apart in the source and are kept apart here.

Columns and labels:
[1] = target: T1, human full-length HSP90 (Homo sapiens, UniProt P08238); assay: Fluorescence polarization assay (competitive displacement of probe RBT0051001-FAM from HSP90); format: binding
T1 construct: E. coli expressed human full-length HSP90 protein, purified >95%; made in house; host or cells: E. coli
Excerpt: Fluorescence Polarization Assay
Fluorescence polarization {also known as fluorescence anisotropy} measures the rotation of a fluorescing species in solution, where the larger molecule the more polarized the fluorescence emission. When the fluorophore is excited with polarized light, the emitted light is also polarized. The molecular size is proportional to the polarization of the fluorescence emission.
The fluoroscein-labelled probe —RBT0051001-FAM—
binds to HSP90 {full-length human, full-length yeast or N-terminal domain HSP90} and the anisotropy {rotation of the probe:protein complex} is measured.
Test compound is added to the assay plate, left to equilibrate and the anisotropy measured again. Any change in anisotropy is due to competitive binding of compound to HSP90, thereby releasing probe.
Chemicals are of the highest purity commercially available and all aqueous solutions are made up in AR water. • 1) Costar 96-well black assay plate #3915 • 2) Assay buffer of (a) 100 mM Tris pH7.4; (b) 20 mM KCl; (c) 6 mM MgCl2. Stored at room temperature. • 3) BSA (bovine serum albumen) 10 mg/ml (New England Biolabs # B9001S) • 4) 20 mM probe in 100% DMSO stock concentration. Stored in the dark at RT. Working concentration is 200 nM diluted in AR water and stored at 4° C. Final concentration in assay 80 nM. • 5) E. coli expressed human full-length HSP90 protein, purified >95% (see, e.g., Panaretou et al., 1998) and stored in 50 μL aliquots at −80° C.
• 1) Add 100 μl 1× buffer to wells 11A and 12A (=FP BLNK) • 2) Prepare assay mix—all reagents are kept on ice with a lid on the bucket as the probe is light-sensitive.
• 3) Aliquot 100 μl assay mix to all other wells • 4) Seal plate and leave in dark at room temp for 20 minutes to equilibrate Compound Dilution Plate—1×3 dilution series • 1) In a clear 96-well v-bottom plate-{# VWR 007/008/257} add 10 μl 100% DMSO to wells B1 to H11 • 2) To wells A1 to A11 add 17.5 μl 100% DMSO • 3) Add 2.5 μl cpd to A1. This gives 2.5 mM {50×} stock cpd-assuming cpds 20 mM. • 4) Repeat for wells A2 to A10. Control in columns 11 and 12. • 5) Transfer 5 μl from row A to row B—not column 12. Mix well. • 6) Transfer 5 μl from row B to row C. […] In column 11 {provides standard curve} only add compound B11-H11. Add 2 μl of 100 mM standard cpd to wells B12-H12 {is positive control} • 13) The Z′ factor is calculated from zero controls and positive wells. It typically gives a value of 0.7-0.9.
The compounds tested in the above assay were assigned to one of two activity ranges, namely A=<10 μM; B=>10 μM, and those assignments are reported above.

[2] = Sulforhodamine B (SRB) growth inhibition / growth arrest assay; format: cell-based; conditions: cell line not stated
Description: A growth inhibition assay was also employed for the evaluation of candidate HSP90 inhibitors:
Assessment of cytotoxicity by Sulforhodamine B (SRB) assay: calculation of 50% inhibitory concentration (IC50).
• 1) Determine cell number by haemocytometer. • 2) Using an 8 channel multipipettor, add 160 μl of the cell suspension (3600 cells/well or 2×10^4 cells/ml) to each well of a 96-well microtitre plate. • 3) Incubate overnight at 37° C. in a CO2 incubator. […]
• 8) Tip off medium into sink and immerse plate slowly into 10% ice cold trichloroacetic acid (TCA). […] Leave for 15 mins. • 12) Wash off unbound SRB stain with four washes of 1% acetic acid. • 13) Dry plates in incubator. • 14) Solubilise SRB using 100 μl of 10 mM Tris base and put plates on plate shaker for 5 mins. • 15) Determine absorbance at 540 nm using a plate reader. Calculate mean absorbance for quadruplicate wells and express as a percentage of value for control, untreated wells. • 16) Plot % absorbance values versus log drug concentration and determine the IC50.

[3] = activity range stated in each example, read-out: activity in the fluorescence polarization assay
[4] = Table 1, read-out: Hsp90 FP IC50

T1 sequence (P08238 whole entry): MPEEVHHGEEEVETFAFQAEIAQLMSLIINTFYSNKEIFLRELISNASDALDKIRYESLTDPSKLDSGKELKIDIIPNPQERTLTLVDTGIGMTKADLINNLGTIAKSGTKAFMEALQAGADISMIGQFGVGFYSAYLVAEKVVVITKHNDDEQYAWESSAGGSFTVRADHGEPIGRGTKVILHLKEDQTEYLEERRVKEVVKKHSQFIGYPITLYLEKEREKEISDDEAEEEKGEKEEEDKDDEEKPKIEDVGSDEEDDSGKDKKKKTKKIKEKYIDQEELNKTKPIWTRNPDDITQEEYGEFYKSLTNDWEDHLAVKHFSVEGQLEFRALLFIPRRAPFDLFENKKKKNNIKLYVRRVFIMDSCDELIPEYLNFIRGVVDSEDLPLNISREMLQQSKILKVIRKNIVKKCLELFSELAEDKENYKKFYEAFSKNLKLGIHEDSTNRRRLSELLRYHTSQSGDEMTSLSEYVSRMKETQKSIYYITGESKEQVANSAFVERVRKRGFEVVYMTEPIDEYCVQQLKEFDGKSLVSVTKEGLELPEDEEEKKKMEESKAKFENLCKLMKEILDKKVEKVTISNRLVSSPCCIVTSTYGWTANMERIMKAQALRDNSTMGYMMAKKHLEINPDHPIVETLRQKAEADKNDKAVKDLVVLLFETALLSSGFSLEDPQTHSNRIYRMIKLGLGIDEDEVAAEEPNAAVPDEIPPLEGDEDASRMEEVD

SMILES	IC50 [1, 3]	IC50 [1, 4]	IC50 [2]
Cc1ccc(-c2nc(N)nc3sc(-c4ncon4)cc23)c(C)c1 [Example 10, 4-(2,4-dimethyl-phenyl)-6-[1,2,4]oxadiazol-3-yl-thieno[2,3-d]pyrimidin-2-ylamine]	< 10 µM	–	< 50 µM
CCN(CC)CCOc1cc(-c2nc(N)nc3sc(-c4cc(C)n[nH]4)cc23)c(Cl)cc1Cl [Example 35, 4-[2,4-dicholoro-5-(2-diethylamino-ethoxy)-phenyl]-6-(5-methyl-2H-pyrazol-3-yl)-thieno[2,3-d]pyrimidine-2-ylamine]	< 10 µM	–	–
CCONC(=O)c1cc2c(-c3ccc(Cl)cc3Cl)nc(N)nc2s1 [Example 15]	–	< 10 µM	–
Cc1ccc(-c2nc(N)nc3sc(C#N)cc23)c(C)c1 [Example 7, 2-Amino-4-(2,4-dimethylphenyl)-thieno[2,3-d]pyrimidine-6-carbonitrile]	< 10 µM	–	–
CCCNCc1cc2c(-c3ccc(C)cc3C)nc(N)nc2s1 [Example 18, 4-(2,4-dimethyl-phenyl)-6-propylaminomethyl-thieno[2,3-d]pyrimidin-2-ylamine]	< 10 µM	–	–
CCCNC(=O)c1ccc(C)c(-c2nc(N)nc3sc(C(=O)NOC)cc23)c1 [Example 17]	–	< 10 µM	–

The next lines start with results.

IC50 [1, 3]	IC50 [1, 4]	SMILES	IC50 [2]
< 10 µM	–	CCN(CC)CCOc1cc(-c2nc(N)nc3sc(C(=O)O)cc23)c(Cl)cc1Cl [Example 36, 2-Amino-4-[2,4-dichloro-5-(2-diethylamino-ethoxy)-phenyl]-thieno[2,3-d]pyrimidine-6-carboxylic acid]	–
< 10 µM	–	Nc1nc(-c2ccc(Cl)cc2Cl)c2cc(CO)sc2n1 [Example 6, [2-Amino-4-(2,4-dichloro-phenyl)-thieno[2,3-d]pyrimidin-6-yl]methanol]	–
< 10 µM	–	CCN(CC)CCOc1cc(-c2nc(N)nc3sc(/C=C/C(C)=O)cc23)c(Cl)cc1Cl [Example 34, 4-{2-Amino-4-[2,4-dicholoro-5-(2-diethylamino-ethoxy)-phenyl]thieno[2,3-d]pyrimidine-6-yl}-but-3-en-2-one]	–
< 10 µM	–	CCN(CC)CCOc1cc(-c2nc(N)nc3sc(C=O)cc23)c(Cl)cc1Cl [Example 33, 2-amino-4-[2,4-dicholoro-5-(2-diethylamino-ethoxy)-phenyl]thieno[2,3-d]pyrimidine-6-carbaldehyde]	–
